The values below are quoted from earlier work in US12653891B2, “Stable glucocorticoid formulation” (AVM Biotechnology, LLC, priority 2018, dated 2026).

Assay in data set [1]: not given
This is another data set of the same source.

Structures can show the parent of a compound that is named as a salt. Where two headings read alike, the source gives them in different places.

In the case of `C[C@@H]1C[C@H]2[C@@H]3CCC4=CC(=O)C=C[C@]4(C)[C@@]3(F)[C@@H](O)C[C@]2(C)[C@@]1(O)C(=O)COP(=O)(O)O` [Dexamethasone phosphate (as sodium), 9-fluoro-11b,17,21-trihydroxy-16a-methylpregna-1,4-diene-3,20-dione 21-(dihydrogen phosphate) Disodium Salt], for the setting “alcohol”, the Solubility in alcohol entry is reported as “slightly soluble”. The “Solubility in chloroform and ether” value (chloroform and ether) is given as “practically insoluble”. The Solubility in dioxan entry (dioxan) is reported as “very slightly soluble”.
Turning to `CC(O)CO` (stereo not shown) [Propylene glycol], the “Threshold (EMA/CHMP/334655/2013)” value is recorded as 500 mg/kg in data set [1] (5 years up to 17 years and adults); 50 mg/kg in data set [1] (29 days up to 4 years); 1 mg/kg in data set [1] (neonates up to 28 days). Also, the “Amount that can accumulate and cause lactic acidosis, CNS depression, coma, hypoglycemia, seizures, hemolysis” value in data set [1] (IV) is listed as no less than 3 g/day.
